# In patent US10815230B2, “Casein kinase 1 delta inhibitor” (ELECTROPHORETICS LIMITED, priority 2015, dated 2020):
# Key:
# CK1g2 = CK1g2 (Homo sapiens, UniProt P78368); assay: Kinase selectivity, % remaining activity; type: biochemical; conditions: 10 μM compound, 10 μM ATP, duplicate; for remaining activity at 10 µM: read-out: % of remaining activity (relative to DMSO)
# Method in brief: (§1)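 Read-out is percent of kinase activity remaining compared with vehicle (DMSO). Testing used one dose, 10 μM, in duplicate at 10 μM ATP.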
# EPHA2 = EPHA2 (Homo sapiens, UniProt P29317); assay: Kinase selectivity, % remaining activity; type: biochemical; conditions: 10 μM compound, 10 μM ATP, duplicate; for remaining activity at 10 µM: read-out: % of remaining activity (relative to DMSO)
# Method in brief: as §1
# ROCK1 = ROCK1 (Homo sapiens, UniProt Q13464); assay: Kinase selectivity, % remaining activity; type: biochemical; conditions: 10 μM compound, 10 μM ATP, duplicate; for remaining activity at 10 µM: read-out: % of remaining activity (relative to DMSO)
# Method in brief: as §1
# c-Src = c-Src (Homo sapiens, UniProt P12931); assay: Kinase selectivity, % remaining activity; type: biochemical; conditions: 10 μM compound, 10 μM ATP, duplicate; for remaining activity at 10 µM: read-out: % of remaining activity (relative to DMSO)
# Method in brief: as §1
# PDK1/PDPK1 = molecular target: T1, PDK1/PDPK1 (Homo sapiens, UniProt O15530); assay: Kinase selectivity, % remaining activity; type: biochemical; conditions: 10 μM compound, 10 μM ATP, duplicate; for remaining activity at 10 µM: read-out: % of remaining activity (relative to DMSO)
# T1 sequence (O15530 1-556): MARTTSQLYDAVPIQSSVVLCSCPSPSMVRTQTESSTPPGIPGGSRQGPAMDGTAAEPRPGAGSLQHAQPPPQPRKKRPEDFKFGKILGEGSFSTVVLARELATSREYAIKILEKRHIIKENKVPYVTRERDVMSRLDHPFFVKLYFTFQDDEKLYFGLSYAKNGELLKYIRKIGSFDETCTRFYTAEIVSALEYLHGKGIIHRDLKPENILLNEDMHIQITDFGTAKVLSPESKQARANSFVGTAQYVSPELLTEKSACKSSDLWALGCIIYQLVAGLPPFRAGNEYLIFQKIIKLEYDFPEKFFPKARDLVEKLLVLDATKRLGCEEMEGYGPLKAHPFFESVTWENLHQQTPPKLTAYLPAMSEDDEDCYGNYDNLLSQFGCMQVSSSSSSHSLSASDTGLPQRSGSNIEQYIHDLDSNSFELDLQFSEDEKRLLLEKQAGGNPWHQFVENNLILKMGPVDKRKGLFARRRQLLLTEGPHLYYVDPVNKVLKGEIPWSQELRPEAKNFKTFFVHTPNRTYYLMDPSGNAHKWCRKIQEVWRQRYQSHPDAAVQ
# Method in brief: as §1
# MSK1/RPS6KA5 = MSK1/RPS6KA5 (Homo sapiens, UniProt O75582); assay: Kinase selectivity, % remaining activity; type: biochemical; conditions: 10 μM compound, 10 μM ATP, duplicate; for remaining activity at 10 µM: read-out: % of remaining activity (relative to DMSO)
# Method in brief: as §1
# GSK3B = GSK3B (Homo sapiens, UniProt P49841); assay: Kinase selectivity, % remaining activity; type: biochemical; conditions: 10 μM compound, 10 μM ATP, duplicate; for remaining activity at 10 µM: read-out: % of remaining activity (relative to DMSO)
# Method in brief: as §1
# CLK2 = CLK2 (Homo sapiens, UniProt P49760); assay: Kinase selectivity, % remaining activity; type: biochemical; conditions: 10 μM compound, 10 μM ATP, duplicate; for remaining activity at 10 µM: read-out: % of remaining activity (relative to DMSO)
# Method in brief: as §1
# ALK5/TGFBR1 = molecular target: T2, ALK5/TGFBR1 (Homo sapiens, UniProt P36897); assay: Kinase selectivity, % remaining activity; type: biochemical; conditions: 10 μM compound, 10 μM ATP, duplicate; for remaining activity at 10 µM: read-out: % of remaining activity (relative to DMSO)
# T2 sequence (P36897 34-503): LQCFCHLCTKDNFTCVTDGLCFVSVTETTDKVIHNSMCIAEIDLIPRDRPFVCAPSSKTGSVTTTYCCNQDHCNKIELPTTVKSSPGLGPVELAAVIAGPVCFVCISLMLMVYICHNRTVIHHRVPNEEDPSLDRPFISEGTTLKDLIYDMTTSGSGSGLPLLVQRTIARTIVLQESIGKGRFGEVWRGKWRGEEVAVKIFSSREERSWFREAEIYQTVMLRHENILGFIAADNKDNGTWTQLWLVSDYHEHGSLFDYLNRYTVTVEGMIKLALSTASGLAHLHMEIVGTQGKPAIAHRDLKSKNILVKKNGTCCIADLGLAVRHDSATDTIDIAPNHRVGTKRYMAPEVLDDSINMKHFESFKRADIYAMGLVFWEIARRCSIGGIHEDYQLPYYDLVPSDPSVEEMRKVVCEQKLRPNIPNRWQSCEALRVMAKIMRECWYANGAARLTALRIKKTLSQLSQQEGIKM
# Method in brief: as §1
# PIM3 = PIM3 (Homo sapiens, UniProt Q86V86); assay: Kinase selectivity, % remaining activity; type: biochemical; conditions: 10 μM compound, 10 μM ATP, duplicate; for remaining activity at 10 µM: read-out: % of remaining activity (relative to DMSO)
# Method in brief: as §1
# YES/YES1 = YES/YES1 (Homo sapiens, UniProt P07947); assay: Kinase selectivity, % remaining activity; type: biochemical; conditions: 10 μM compound, 10 μM ATP, duplicate; for remaining activity at 10 µM: read-out: % of remaining activity (relative to DMSO)
# Method in brief: as §1
# MET (Y1235D) = MET (Y1235D) (Homo sapiens, UniProt P08581, Y1235D); assay: KINOMEscan binding assay; conditions: read-out: % Ctrl @ 10000 nM
# SNRK = SNRK (Homo sapiens, UniProt Q9NRH2); assay: KINOMEscan binding assay; conditions: read-out: % Ctrl @ 10000 nM
# EGFR (S752-I759del) = EGFR (S752-I759del) (Homo sapiens, UniProt P00533, DEL752-759); assay: KINOMEscan binding assay; conditions: read-out: % Ctrl @ 10000 nM
# PKN1 = PKN1 (Homo sapiens, UniProt Q16512); assay: KINOMEscan binding assay; conditions: read-out: % Ctrl @ 10000 nM
# PIM1 = PIM1 (Homo sapiens, UniProt P11309); assay: KINOMEscan binding assay; conditions: read-out: % Ctrl @ 10000 nM
# LRRK2 (G2019S) = molecular target: T3, LRRK2 (G2019S) (Homo sapiens, UniProt Q5S007, G2019S); assay: KINOMEscan binding assay; conditions: read-out: % Ctrl @ 10000 nM
# T3 construct: T7 phage fusion (most assays) or DNA label after HEK293 expression; purchased DiscoveRx (KINOMEscan, LeadHunter Discovery services); host or cells: T7 phage in E. coli (BL21-derived) or HEK293
# WEE1 = WEE1 (Homo sapiens, UniProt P30291); assay: KINOMEscan binding assay; conditions: read-out: % Ctrl @ 10000 nM
# ULK2 = molecular target: T4, ULK2 (Homo sapiens, UniProt Q8IYT8); assay: KINOMEscan binding assay; conditions: read-out: % Ctrl @ 10000 nM
# T4 construct: purchased DiscoveRx (KINOMEscan, LeadHunter Discovery services)
# ASK2 = ASK2 (Homo sapiens, UniProt O95382); assay: KINOMEscan binding assay; conditions: read-out: % Ctrl @ 10000 nM
# [1] = molecular target: RPS6KA4 Kin.Dom.1-N-terminal (Homo sapiens, UniProt O75676); assay: KINOMEscan binding assay; conditions: read-out: % Ctrl @ 10000 nM
# MKK7 = MKK7 (Homo sapiens, UniProt O14733); assay: KINOMEscan binding assay; conditions: read-out: % Ctrl @ 10000 nM
# Chain of ROCK1 (Q13464 whole entry): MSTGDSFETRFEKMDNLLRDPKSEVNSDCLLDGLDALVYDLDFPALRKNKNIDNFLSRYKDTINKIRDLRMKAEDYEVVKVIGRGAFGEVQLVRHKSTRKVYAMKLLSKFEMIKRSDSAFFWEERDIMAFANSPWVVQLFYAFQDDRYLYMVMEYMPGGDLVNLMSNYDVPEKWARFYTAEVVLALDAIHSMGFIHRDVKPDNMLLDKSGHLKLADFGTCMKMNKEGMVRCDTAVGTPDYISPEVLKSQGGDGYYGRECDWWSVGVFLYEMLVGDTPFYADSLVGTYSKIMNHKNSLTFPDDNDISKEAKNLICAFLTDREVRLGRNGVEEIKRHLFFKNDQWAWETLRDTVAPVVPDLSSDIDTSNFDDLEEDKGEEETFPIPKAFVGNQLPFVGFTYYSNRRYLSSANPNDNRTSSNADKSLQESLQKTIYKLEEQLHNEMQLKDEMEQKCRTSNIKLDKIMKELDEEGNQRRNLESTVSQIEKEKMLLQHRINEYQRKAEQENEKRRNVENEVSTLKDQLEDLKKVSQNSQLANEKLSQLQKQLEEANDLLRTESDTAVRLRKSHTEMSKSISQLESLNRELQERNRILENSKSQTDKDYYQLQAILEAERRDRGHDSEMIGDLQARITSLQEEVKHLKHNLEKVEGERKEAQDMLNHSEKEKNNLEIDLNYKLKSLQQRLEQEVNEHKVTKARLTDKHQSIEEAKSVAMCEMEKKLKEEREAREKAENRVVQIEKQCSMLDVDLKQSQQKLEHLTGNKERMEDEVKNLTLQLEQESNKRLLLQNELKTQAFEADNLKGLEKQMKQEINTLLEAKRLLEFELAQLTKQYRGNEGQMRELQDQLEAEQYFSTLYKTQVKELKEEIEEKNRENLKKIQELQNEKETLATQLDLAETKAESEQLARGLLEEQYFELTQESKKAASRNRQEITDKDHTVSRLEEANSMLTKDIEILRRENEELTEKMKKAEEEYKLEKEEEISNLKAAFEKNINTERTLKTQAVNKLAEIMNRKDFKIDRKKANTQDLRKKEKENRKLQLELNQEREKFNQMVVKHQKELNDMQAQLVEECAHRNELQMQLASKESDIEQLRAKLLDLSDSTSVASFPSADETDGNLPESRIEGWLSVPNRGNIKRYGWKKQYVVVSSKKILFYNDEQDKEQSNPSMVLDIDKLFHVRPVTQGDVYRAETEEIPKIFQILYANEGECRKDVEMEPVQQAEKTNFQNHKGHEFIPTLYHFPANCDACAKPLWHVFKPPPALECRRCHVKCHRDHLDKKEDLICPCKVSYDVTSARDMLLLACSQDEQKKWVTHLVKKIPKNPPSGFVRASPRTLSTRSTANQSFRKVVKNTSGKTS
# Chain of CLK2 (P49760 whole entry): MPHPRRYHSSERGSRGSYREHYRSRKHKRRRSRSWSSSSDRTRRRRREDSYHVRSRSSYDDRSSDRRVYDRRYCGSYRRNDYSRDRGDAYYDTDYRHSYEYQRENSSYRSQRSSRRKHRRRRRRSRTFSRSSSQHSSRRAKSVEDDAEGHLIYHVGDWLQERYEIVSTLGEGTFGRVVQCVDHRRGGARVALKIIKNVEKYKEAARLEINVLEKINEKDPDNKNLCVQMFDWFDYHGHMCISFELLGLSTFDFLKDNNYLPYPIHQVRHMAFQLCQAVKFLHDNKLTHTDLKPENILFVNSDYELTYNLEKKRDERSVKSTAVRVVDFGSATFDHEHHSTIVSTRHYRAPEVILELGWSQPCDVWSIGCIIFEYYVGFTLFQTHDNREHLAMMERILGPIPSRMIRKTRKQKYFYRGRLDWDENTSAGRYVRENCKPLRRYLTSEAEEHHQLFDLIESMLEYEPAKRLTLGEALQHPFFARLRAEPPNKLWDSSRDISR
# Chain of CK1g2 (P78368 whole entry, species assumed): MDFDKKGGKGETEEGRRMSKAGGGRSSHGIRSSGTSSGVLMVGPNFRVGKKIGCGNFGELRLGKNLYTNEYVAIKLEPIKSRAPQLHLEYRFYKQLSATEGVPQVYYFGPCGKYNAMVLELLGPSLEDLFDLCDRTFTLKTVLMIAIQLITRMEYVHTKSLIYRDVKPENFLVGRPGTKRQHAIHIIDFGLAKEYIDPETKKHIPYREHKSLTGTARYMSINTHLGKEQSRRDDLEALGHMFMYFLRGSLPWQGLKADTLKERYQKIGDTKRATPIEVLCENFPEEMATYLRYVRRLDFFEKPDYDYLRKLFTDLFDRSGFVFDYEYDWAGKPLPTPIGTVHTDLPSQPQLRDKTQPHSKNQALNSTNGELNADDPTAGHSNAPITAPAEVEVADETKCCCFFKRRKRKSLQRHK
# Chain of EPHA2 (P29317 24-976): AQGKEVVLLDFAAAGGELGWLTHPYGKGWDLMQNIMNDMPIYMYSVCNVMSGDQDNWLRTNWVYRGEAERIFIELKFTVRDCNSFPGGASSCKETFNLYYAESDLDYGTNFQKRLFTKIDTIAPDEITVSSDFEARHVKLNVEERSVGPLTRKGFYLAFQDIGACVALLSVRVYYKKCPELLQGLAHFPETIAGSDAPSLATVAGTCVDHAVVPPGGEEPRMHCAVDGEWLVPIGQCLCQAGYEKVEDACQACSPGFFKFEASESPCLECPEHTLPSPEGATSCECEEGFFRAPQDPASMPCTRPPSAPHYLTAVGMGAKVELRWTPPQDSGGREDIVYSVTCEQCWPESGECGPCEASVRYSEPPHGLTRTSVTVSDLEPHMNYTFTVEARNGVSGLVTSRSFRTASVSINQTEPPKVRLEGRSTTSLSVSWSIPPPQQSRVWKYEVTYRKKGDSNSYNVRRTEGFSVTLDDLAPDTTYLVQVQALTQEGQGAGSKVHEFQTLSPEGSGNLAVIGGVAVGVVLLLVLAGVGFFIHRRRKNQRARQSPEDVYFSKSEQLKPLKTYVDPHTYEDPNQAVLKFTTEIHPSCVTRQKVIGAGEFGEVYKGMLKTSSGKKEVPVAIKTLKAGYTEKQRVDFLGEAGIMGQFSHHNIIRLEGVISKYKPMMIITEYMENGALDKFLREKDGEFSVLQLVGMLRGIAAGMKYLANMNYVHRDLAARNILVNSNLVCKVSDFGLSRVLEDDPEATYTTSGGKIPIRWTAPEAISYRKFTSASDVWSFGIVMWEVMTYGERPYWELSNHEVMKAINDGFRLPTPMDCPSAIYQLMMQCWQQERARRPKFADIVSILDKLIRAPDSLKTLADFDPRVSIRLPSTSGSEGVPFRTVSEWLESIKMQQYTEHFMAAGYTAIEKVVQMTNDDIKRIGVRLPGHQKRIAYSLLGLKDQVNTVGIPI
# Chain of c-Src (P12931 whole entry, species assumed): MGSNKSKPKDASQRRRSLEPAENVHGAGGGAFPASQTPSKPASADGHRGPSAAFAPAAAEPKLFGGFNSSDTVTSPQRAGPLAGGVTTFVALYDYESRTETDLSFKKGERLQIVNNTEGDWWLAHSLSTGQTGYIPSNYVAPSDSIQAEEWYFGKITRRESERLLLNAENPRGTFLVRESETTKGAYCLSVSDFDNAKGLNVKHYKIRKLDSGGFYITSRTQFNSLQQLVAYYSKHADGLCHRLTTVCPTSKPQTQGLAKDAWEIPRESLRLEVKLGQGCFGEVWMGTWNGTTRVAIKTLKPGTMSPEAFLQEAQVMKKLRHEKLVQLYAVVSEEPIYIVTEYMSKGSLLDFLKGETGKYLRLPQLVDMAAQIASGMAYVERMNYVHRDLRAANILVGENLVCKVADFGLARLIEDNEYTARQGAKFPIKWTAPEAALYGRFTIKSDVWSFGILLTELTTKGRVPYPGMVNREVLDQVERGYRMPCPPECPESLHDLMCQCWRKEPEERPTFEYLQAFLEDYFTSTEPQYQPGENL
# Chain of YES/YES1 (P07947 whole entry): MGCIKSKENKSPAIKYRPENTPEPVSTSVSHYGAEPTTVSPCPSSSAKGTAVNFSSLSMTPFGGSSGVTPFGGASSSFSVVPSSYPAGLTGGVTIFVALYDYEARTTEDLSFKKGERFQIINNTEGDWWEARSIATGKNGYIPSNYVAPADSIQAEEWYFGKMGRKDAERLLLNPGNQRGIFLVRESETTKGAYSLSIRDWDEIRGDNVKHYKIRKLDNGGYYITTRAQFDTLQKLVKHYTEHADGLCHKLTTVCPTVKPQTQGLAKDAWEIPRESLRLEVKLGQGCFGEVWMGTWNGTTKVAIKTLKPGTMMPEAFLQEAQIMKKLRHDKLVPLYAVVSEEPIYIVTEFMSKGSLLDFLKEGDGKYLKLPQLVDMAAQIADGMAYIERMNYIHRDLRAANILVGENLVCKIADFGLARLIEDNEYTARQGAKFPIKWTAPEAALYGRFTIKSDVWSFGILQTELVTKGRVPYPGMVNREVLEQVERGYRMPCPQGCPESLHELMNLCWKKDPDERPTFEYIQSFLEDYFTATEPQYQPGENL
# Chain of GSK3B (P49841 whole entry): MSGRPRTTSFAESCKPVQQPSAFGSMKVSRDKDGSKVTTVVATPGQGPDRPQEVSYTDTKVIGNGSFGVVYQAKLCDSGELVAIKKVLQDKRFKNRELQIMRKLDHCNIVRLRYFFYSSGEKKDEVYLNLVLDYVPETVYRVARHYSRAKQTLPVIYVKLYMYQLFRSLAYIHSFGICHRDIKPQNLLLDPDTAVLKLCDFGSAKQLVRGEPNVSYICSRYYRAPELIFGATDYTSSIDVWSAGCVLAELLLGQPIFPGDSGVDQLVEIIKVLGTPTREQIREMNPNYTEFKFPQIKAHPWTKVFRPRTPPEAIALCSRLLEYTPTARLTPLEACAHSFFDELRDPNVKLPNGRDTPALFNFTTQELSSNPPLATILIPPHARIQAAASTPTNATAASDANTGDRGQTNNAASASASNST
Structure (SMILES),remaining activity at 10 µM (CK1g2),remaining activity at 10 µM (EPHA2),remaining activity at 10 µM (ROCK1),remaining activity at 10 µM (c-Src),remaining activity at 10 µM (PDK1/PDPK1),remaining activity at 10 µM (MSK1/RPS6KA5),remaining activity at 10 µM (GSK3B),remaining activity at 10 µM (CLK2),remaining activity at 10 µM (ALK5/TGFBR1),remaining activity at 10 µM (PIM3),remaining activity at 10 µM (YES/YES1),remaining binding at 10 µM (MET (Y1235D)),remaining binding at 10 µM (SNRK),remaining binding at 10 µM (EGFR (S752-I759del)),remaining binding at 10 µM (PKN1),remaining binding at 10 µM (PIM1),remaining binding at 10 µM (LRRK2 (G2019S)),remaining binding at 10 µM (WEE1),remaining binding at 10 µM (ULK2),remaining binding at 10 µM (ASK2),also measured
"COc1ccc(C=C2N=C(c3cccs3)OC2=O)cc1 [Comparative Compound 315, 4-((4-methoxyphenyl)methylene)-2-(2-thienyl)-5(4H)-oxalone]",47.3%,99%,93.4%,104%,105%,117%,120%,50.6%,107%,60.6%,99%,–,–,–,–,–,–,–,–,–,% of remaining activity (relative to DMSO) (CK1g2; listed as Cmp 315): 50.52%; % of remaining activity (relative to DMSO) (EPHA2; listed as Cmp 315): 96.60%; % of remaining activity (relative to DMSO) (ROCK1; listed as Cmp 315): 90.20%; % of remaining activity (relative to DMSO) (c-Src; listed as Cmp 315): 101.24%; % of remaining activity (relative to DMSO) (PDK1/PDPK1; listed as Cmp 315): 103.28%; % of remaining activity (relative to DMSO) (MSK1/RPS6KA5; listed as Cmp 315): 118.15%; % of remaining activity (relative to DMSO) (GSK3B; listed as Cmp 315): 115.26%; % of remaining activity (relative to DMSO) (CLK2; listed as Cmp 315): 48.99%; % of remaining activity (relative to DMSO) (ALK5/TGFBR1; listed as Cmp 315): 110.31%; % of remaining activity (relative to DMSO) (PIM3; listed as Cmp 315): 57.54%; % of remaining activity (relative to DMSO) (YES/YES1; listed as Cmp 315): 99.08%
"Nc1ncc(-c2nc3ccccc3o2)c(-c2ccncc2)n1 [Comparative Compound 324, 5-(1,3-benzoxazol-2-yl)-4-(pyridine-4-yl)pyrimidin-2-amine]",58%,98.7%,109%,–,105%,81.1%,91.3%,96.2%,105%,100%,108%,83%,65%,84%,100%,98%,76%,100%,100%,99%,% of remaining activity (relative to DMSO) (CK1g2; listed as Cmp 324): 58.69%; % of remaining activity (relative to DMSO) (EPHA2; listed as Cmp 324): 105.62%; % of remaining activity (relative to DMSO) (ROCK1; listed as Cmp 324): 109.68%; % of remaining activity (relative to DMSO) (PDK1/PDPK1; listed as Cmp 324): 104.88%; % of remaining activity (relative to DMSO) (MSK1/RPS6KA5; listed as Cmp 324): 94.78%; % of remaining activity (relative to DMSO) (GSK3B; listed as Cmp 324): 80.19%; % of remaining activity (relative to DMSO) (CLK2; listed as Cmp 324): 92.16%; % of remaining activity (relative to DMSO) (ALK5/TGFBR1; listed as Cmp 324): 101.71%; % of remaining activity (relative to DMSO) (PIM3; listed as Cmp 324): 95.35%; % of remaining activity (relative to DMSO) (YES/YES1; listed as Cmp 324): 95.22%; remaining binding at 10 µM [1]: 100%; remaining binding at 10 µM (MKK7): 100%
"CNc1c(C(N)=O)c2ccccn2c1C(=O)c1ccc(F)cc1 [Compound A, 2-methyl-amino-3-[(4-fluorophenyl)carbonyl]indolizine-1-carboxamide]",95.5%,59%,95.5%,61%,107%,117%,124%,100%,110%,125%,58.4%,77%,66%,18%,88%,92%,86%,94%,95%,100%,% of remaining activity (relative to DMSO) (CK1g2; listed as Cmp A): 99.83%; % of remaining activity (relative to DMSO) (EPHA2; listed as Cmp A): 55.67%; % of remaining activity (relative to DMSO) (ROCK1; listed as Cmp A): 96.14%; % of remaining activity (relative to DMSO) (c-Src; listed as Cmp A): 60.86%; % of remaining activity (relative to DMSO) (PDK1/PDPK1; listed as Cmp A): 105.50%; % of remaining activity (relative to DMSO) (MSK1/RPS6KA5; listed as Cmp A): 111.83%; % of remaining activity (relative to DMSO) (GSK3B; listed as Cmp A): 122.02%; % of remaining activity (relative to DMSO) (CLK2; listed as Cmp A): 105.40%; % of remaining activity (relative to DMSO) (ALK5/TGFBR1; listed as Cmp A): 109.38%; % of remaining activity (relative to DMSO) (PIM3; listed as Cmp A): 119.96%; % of remaining activity (relative to DMSO) (YES/YES1; listed as Cmp A): 60.09%; remaining binding at 10 µM [1]: 100%; remaining binding at 10 µM (MKK7): 100%
"Nc1ncnc2c1c(COc1cccc(Cl)c1)nn2C1CCOCC1 [PF4800567, 3-[(3-Chlorophenoxy)methyl]-1-(tetrahydro-2H-pyran-4-yl)-1H-pyrazolo[3,4-d]pyrimidin-4-amine]",86%,39%,95.2%,44%,103%,104%,114%,105%,105%,116%,15.5%,–,–,–,–,–,–,–,–,–,–
